Experimental data from PubChem BioAssay (NCI).
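Values below derive from 48-hour exposures of cells grown in 96-well plates, with endpoints linearly interpolated between the two concentrations bracketing the appropriate inhibition level. TGI: concentration producing complete growth inhibition.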

Assays:
Experiment in all cases: NCI-60 cell line screen, 48 h
786-0 renal = tested on: 786-0 renal
A498 renal = tested on: A498 renal
A549 NSCLC = tested on: A549 NSCLC
ACHN renal = tested on: ACHN renal
CAKI-1 renal = tested on: CAKI-1 renal
CCRF-CEM leukemia = tested on: CCRF-CEM leukemia
COLO 205 colon = tested on: COLO 205 colon
DLD-1 colon = tested on: DLD-1 colon
DMS 114 small cell lung = tested on: DMS 114 small cell lung
DMS 273 small cell lung = tested on: DMS 273 small cell lung
EKVX NSCLC = tested on: EKVX NSCLC
HCC-2998 colon = tested on: HCC-2998 colon
HCT-116 colon = tested on: HCT-116 colon
HCT-15 colon = tested on: HCT-15 colon
HOP-18 NSCLC = tested on: HOP-18 NSCLC
HOP-62 NSCLC = tested on: HOP-62 NSCLC
HT29 colon = tested on: HT29 colon
IGROV1 ovarian = tested on: IGROV1 ovarian
K-562 leukemia = tested on: K-562 leukemia
KM12 colon = tested on: KM12 colon
KM20L2 colon = tested on: KM20L2 colon
LOX IMVI melanoma = tested on: LOX IMVI melanoma
LXFL 529 NSCLC = tested on: LXFL 529 NSCLC
M14 melanoma = tested on: M14 melanoma
M19-MEL melanoma = tested on: M19-MEL melanoma
MALME-3M melanoma = tested on: MALME-3M melanoma
MOLT-4 leukemia = tested on: MOLT-4 leukemia
NCI-H23 lung = tested on: NCI-H23 lung
NCI-H460 lung = tested on: NCI-H460 lung
OVCAR-3 ovarian = tested on: OVCAR-3 ovarian
OVCAR-4 ovarian = tested on: OVCAR-4 ovarian
OVCAR-5 ovarian = tested on: OVCAR-5 ovarian
OVCAR-8 ovarian = tested on: OVCAR-8 ovarian
RPMI-8226 leukemia = tested on: RPMI-8226 leukemia
RXF 393 renal = tested on: RXF 393 renal
SF-268 CNS = tested on: SF-268 CNS
SF-295 CNS = tested on: SF-295 CNS
SF-539 CNS = tested on: SF-539 CNS
SK-MEL-2 melanoma = tested on: SK-MEL-2 melanoma
SK-MEL-28 melanoma = tested on: SK-MEL-28 melanoma
SK-MEL-5 melanoma = tested on: SK-MEL-5 melanoma
SK-OV-3 ovarian = tested on: SK-OV-3 ovarian
SN12C renal = tested on: SN12C renal
SNB-19 CNS = tested on: SNB-19 CNS
SNB-75 CNS = tested on: SNB-75 CNS
SNB-78 CNS = tested on: SNB-78 CNS
SW-620 colon = tested on: SW-620 colon
TK-10 renal = tested on: TK-10 renal
U251 CNS = tested on: U251 CNS
UACC-257 melanoma = tested on: UACC-257 melanoma
UACC-62 melanoma = tested on: UACC-62 melanoma
XF 498 CNS = tested on: XF 498 CNS
HL-60(TB) leukemia = tested on: HL-60(TB) leukemia
NCI-H226 lung = tested on: NCI-H226 lung
NCI-H522 lung = tested on: NCI-H522 lung
SR leukemia = tested on: SR leukemia
UO-31 renal = tested on: UO-31 renal

Measured: TGI

CCOP(=O)(OCC)C1C(=O)O[C@H]2CCCC[C@@H]12 (some centres not stated)
not listed: HL-60(TB) leukemia | NCI-H226 lung | NCI-H522 lung | SR leukemia | UO-31 renal
> 100 µM: all other assays above

COc1cc(C2C(Cl)C(=O)N2n2cnc3ccccc3c2=O)cc(OC)c1OC (configuration not stated)
not listed: A498 renal | SF-539 CNS
> 100 µM: all other assays above
